# Literature values in patent US20250277001A1, “PEPTIDE DERIVATIVES AND RELATED USES AS OREXIN AGONISTS” (CENTESSA PHARMACEUTICALS (UK) LIMITED, priority 2022, published 2025).
# Read-outs that look alike come from different tables or passages of the source.
# What was measured:
# [1] = tested on: mice; settings: subcutaneous, cited from earlier work
# [2] = tested on: individuals with NT1; settings: initial clinical studies; cited from earlier work
smiles,measurement,setting,value
COC(=O)N1CCC[C@H](NS(C)(=O)=O)[C@@H]1CO[C@H]1CC[C@@H](c2ccccc2)CC1 [TAK-925],wakefulness,[1]; OX2R-knockout mice,not
same,wakefulness,[1]; WT mice,modestly increased
same,cataplexy,[2],trends for decreasing cataplexy
same,wakefulness,[2],substantial levels of increased wakefulness
